Here are results for 14 compounds from patent publication US20230192661A1, “1, 4, 5, 6-TETRAHYDROPYRIMIDINE-2-AMINE DERIVATIVE” (UBE Corporation, priority 2020, published 2023).

A short description of series [1]: Transcellular transport test using Caco2 cell. The settings on record: human, Caco-2; Caco2 monolayer, A-to-B, 10 μM compound, pH 7.4, 90 minutes. The format is in vitro ADME. The procedure: Caco2 cells (purchased from ATCC) were cultured in DMEM medium (Thermo Fisher Scientific, Inc., 11965) containing 10% FBS (Thermo Fisher Scientific, Inc., 10082) and 1% penicillin/streptomycin/amphotericin B (Thermo Fisher Scientific, Inc., 15240). A transcellular transport test was carried out in accordance with MultiScreen Caco2 Drug Transport Assembly in a 96-well system (Application Note AN1727EN, MultiScreen Caco-2 Assay System, Merck) by partially modifying it. The Caco2 cells were inoculated at a cell density of 4×10^4 cells/well onto a micropore polycarbonate insert of a 96-well plate (Merck, Millcell-96 culture insert plate 0.4 μm pore size, well membrane area=0.11 cm^2, PSHT004S5) and cultured for 20 to 22 days, and the resulting monolayer was used in the transcellular transport test. The medium of the inoculated cells was replaced with a fresh one every 3 to 4 days.
Apical-to-basolateral (A-to-B) transport in the Caco2 cell monolayer membrane was performed by using HBSS (Thermo Fisher Scientific, Inc., 14025) medium (pH=7.4) containing 20 mM HEPES (Thermo Fisher Scientific, Inc., 15630), and adding HEPES-containing HBSS medium containing 10 μM compound (a 10 mM solution of the compound in DMSO was added at a 1000-fold dilution; final DMSO concentration: 0.1%) at 75 μL/well to the apical side and HEPES-containing HBSS medium supplemented with no compound at 250 μL/well to the basolateral side, followed by culture at 37° C. for 90 minutes. After culture, a 100 μL aliquot was collected from the basolateral side, and the concentration of a permeated compound was measured by LC-MS/MS under measurement conditions mentioned later. Papp (apparent permeability; cm/sec) was calculated from the determined concentration. Papp was determined according to the expression given below by calculating the slope (dA/dt; nmol/sec) of a straight line drawn between two points 0 minutes and zero amount of the compound in a graph plotted with an assay time (90 min) on the abscissa against the amount of the compound in the solution on the permeated side on the ordinate. As for an assay concentration, the concentration in the compound in the HEPES-containing HBSS medium containing the added compound was measured by UV-HPLC under measurement conditions mentioned later.
Papp (cm/sec)=C0×S×(dA/dt)
C0: assay concentration, S: plate membrane area=0.11 cm^2

For a further series, the target named is T1, αvβ1 (UniProt G3HZ55+P06756).
T1 construct: expressed in transfected cells; host or cells: CHO cells deficient in α5 gene, transfected with αv gene
T1 sequence (P06756 31-889 limits assumed): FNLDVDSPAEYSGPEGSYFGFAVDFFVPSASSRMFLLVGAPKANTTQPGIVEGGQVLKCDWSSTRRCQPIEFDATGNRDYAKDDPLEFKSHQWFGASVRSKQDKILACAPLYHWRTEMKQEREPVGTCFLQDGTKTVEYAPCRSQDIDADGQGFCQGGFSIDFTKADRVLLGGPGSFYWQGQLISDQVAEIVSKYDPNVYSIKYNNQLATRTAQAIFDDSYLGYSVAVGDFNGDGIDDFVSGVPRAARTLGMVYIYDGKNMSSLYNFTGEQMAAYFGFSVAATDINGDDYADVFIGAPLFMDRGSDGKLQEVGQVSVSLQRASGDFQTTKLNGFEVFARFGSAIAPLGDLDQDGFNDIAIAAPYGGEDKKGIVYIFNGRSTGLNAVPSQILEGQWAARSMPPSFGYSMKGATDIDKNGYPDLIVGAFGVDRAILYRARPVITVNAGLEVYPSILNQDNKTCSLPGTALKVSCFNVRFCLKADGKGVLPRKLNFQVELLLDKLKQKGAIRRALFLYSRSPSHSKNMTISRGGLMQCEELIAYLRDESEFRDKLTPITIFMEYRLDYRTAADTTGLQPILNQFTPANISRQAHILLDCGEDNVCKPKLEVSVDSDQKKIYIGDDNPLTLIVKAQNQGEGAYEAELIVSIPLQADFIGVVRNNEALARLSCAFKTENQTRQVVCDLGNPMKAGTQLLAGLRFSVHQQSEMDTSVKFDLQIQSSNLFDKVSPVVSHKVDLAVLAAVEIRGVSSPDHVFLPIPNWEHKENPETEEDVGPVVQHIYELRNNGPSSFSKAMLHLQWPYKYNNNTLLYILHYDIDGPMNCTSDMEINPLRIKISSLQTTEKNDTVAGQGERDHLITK
T1 sequence (P06756 891-1048 limits assumed): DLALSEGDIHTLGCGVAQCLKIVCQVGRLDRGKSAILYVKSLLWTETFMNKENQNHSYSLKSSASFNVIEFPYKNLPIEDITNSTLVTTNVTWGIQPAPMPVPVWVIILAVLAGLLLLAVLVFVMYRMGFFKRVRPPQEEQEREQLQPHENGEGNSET
T1 sequence (G3HZ55 21-798): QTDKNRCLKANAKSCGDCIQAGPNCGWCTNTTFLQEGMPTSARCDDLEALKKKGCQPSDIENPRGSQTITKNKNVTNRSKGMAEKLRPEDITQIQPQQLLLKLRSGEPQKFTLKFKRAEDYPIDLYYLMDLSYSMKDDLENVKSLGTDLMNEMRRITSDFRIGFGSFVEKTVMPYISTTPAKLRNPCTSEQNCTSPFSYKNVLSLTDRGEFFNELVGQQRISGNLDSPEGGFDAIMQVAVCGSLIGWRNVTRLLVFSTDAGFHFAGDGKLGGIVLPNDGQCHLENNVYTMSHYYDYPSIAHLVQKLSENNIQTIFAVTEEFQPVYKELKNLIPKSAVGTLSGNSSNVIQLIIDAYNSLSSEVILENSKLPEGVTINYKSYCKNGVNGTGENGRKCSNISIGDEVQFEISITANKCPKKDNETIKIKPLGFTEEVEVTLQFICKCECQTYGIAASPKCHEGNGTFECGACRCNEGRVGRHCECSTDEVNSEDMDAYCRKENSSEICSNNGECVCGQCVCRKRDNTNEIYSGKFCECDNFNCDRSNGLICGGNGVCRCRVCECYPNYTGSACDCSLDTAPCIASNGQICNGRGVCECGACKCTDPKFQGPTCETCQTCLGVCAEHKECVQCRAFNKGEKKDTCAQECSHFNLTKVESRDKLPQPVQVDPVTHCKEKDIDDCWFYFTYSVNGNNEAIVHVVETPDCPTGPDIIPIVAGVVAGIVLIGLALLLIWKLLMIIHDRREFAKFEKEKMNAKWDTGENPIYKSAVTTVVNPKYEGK
Put plainly: αvβ1 cell adhesion inhibition test (αv-transfected CHO cells on human fibronectin). The format is cell-based. The settings on record: human fibronectin coating, 1 mM MnCl2, 1 hour, read-out: IC50 (rate of inhibition of cell adhesion, αvβ1). As to the method: Test Example 1 was performed by partially modifying the method of Reed et al. (Sci Transl Med., 7 (288), 288ra79, 2015).
Human fibronectin (manufactured by Sigma-Aldrich Co. LLC, F0895) was prepared at 1.25 μg/mL with phosphate buffered saline (PBS), dispensed at 100 μL/well to a 96-well plate, and left standing overnight. The plate was washed with Hanks' balanced salt solution (HBSS), then subjected to blocking treatment with Dulbecco's modified Eagle medium (DMEM) containing 1% bovine serum-derived albumin (BSA) (FUJIFILM Wako Pure Chemical Corp., for cell culture, 017-22231), and used as a coated plate in the adhesion test.
αv-transfected cells (CHO cells deficient in α5 gene and transfected with αv gene) cultured in Ham's F-12 medium (FUJIFILM Wako Pure Chemical Corp., 087-08335) containing 10% fetal bovine serum (FBS), 1% penicillin/streptomycin/amphotericin B (manufactured by Thermo Fisher Scientific, Inc., 15240), 1 mM GlutaMAX Supplement (manufactured by Thermo Fisher Scientific, Inc., 35050), and 400 μg/mL hygromycin B (FUJIFILM Wako Pure Chemical Corp., 080-07683) were recovered and suspended in DMEM containing 1 mM MnCl2 (manufactured by Sigma-Aldrich Co. LLC, M1787) to prepare a cell suspension. A test compound dissolved in DMSO was added thereto.
The cell suspension of 1×10^6 cells/mL containing the test compound was added at 100 μL/well to the coated plate and left standing for 1 hour in a 5% CO2 incubator (37° C.). One hour later, the supernatant was removed, and the plate was washed with HBSS. The cells that adhered to each well in the plate were stained with crystal violet, and the cells were lysed, followed by absorbance measurement. Inhibition without substrate coating was defined as 100% inhibition, and inhibition when DMSO was added instead of the test compound was defined as 0% inhibition. The rate of inhibition of cell adhesion by the test compound was calculated according to the following expression.
Rate of inhibition of cell adhesion (%)=[1−{(Absorbance in the case of adding the test compound)−(Absorbance without substrate coating)}/{(Absorbance in the case of adding DMSO)−(Absorbance without substrate coating)}]×100
An IC50 value was calculated from the rate of inhibition of cell adhesion by the test compound. A: IC50<3 nM, B: 3 nM≤IC50<10 nM, C: 10 nM≤IC50<30 nM, D: 30 nM≤IC50<100 nM, or E: IC50≥100 nM.

Consider `O=C(O)C[C@H](NC(=O)CNC(=O)c1cc(NC2=NCC(F)CN2)c2cn[nH]c2c1)c1cc(Cl)cc(C(F)(F)F)c1` (stereo partly drawn) [Example 1-(b), (3S)-3-(3-chloro-5-(trifluoromethyl)phenyl)-3-(2-(4-((5-fluoro-1,4,5,6-tetrahydropyrimidin-2-yl)amino)-1H-indazole-6-carboxamido)acetamido)propanoic acid], for which the Papp A→B at 90 min, 10 μM in series [1] was > 1 ×10⁻⁶ cm/s. Besides, the IC50 at αvβ1 was < 3 nM.
`O=C(O)C[C@H](NC(=O)CNC(=O)c1cc(NC2=NCC(F)CN2)c2cn[nH]c2c1)c1cc(Br)cc(C(F)(F)F)c1` (stereo partly drawn) [Example 2-(b), (3S)-3-(3-bromo-5-(trifluoromethyl)phenyl)-3-(2-(4-((5-fluoro-1,4,5,6-tetrahydropyrimidin-2-yl)amino)-1H-indazole-6-carboxamido)acetamido)propanoic acid] returned a Papp A→B at 90 min, 10 μM in series [1] of 0.5 to 1 ×10⁻⁶ cm/s. Also, the IC50 at αvβ1 lay in the range of 3 to 10 nM.
For `O=C(O)C[C@H](NC(=O)CNC(=O)c1cc(NC2=NCC(F)CN2)c2cn[nH]c2c1)c1cc(I)cc(C(F)(F)F)c1` (stereo partly drawn) [Example 3-(b), (3S)-3-(2-(4-((5-fluoro-1,4,5,6-tetrahydropyrimidin-2-yl)amino)-1H-indazole-6-carboxamido)acetamido)-3-(3-iodo-5-(trifluoromethyl)phenyl)propanoic acid], in that order: > 1 ×10⁻⁶ cm/s and 3 to 10 nM.
Turning to `Cc1cc([C@H](CC(=O)O)NC(=O)CNC(=O)c2cc(NC3=NCC(F)CN3)c3cn[nH]c3c2)cc(C(F)(F)F)c1` (stereo partly drawn) [Example 4-(b), (3S)-3-(2-(4-((5-fluoro-1,4,5,6-tetrahydropyrimidin-2-yl)amino)-1H-indazole-6-carboxamido)acetamido)-3-(3-methyl-5-(trifluoromethyl)phenyl)propanoic acid], in series [1], the Papp A→B at 90 min, 10 μM was > 1 ×10⁻⁶ cm/s. Besides, on αvβ1, the IC50 was 3 to 10 nM.
Consider `COc1cc([C@H](CC(=O)O)NC(=O)CNC(=O)c2cc(NC3=NCC(F)CN3)c3cn[nH]c3c2)cc(C(F)(F)F)c1` (stereo partly drawn) [Example 5-(b), (3S)-3-(2-(4-((5-fluoro-1,4,5,6-tetrahydropyrimidin-2-yl)amino)-1H-indazole-6-carboxamido)acetamido)-3-(3-methoxy-5-(trifluoromethyl)phenyl)propanoic acid], for which, in series [1], the Papp A→B at 90 min, 10 μM lay within 0.5 to 1 ×10⁻⁶ cm/s. The IC50 at αvβ1 was < 3 nM.
On to `O=C(O)C[C@H](NC(=O)CNC(=O)c1cc(NC2=NCC(F)CN2)c2cn[nH]c2c1)c1cc(F)cc(C(F)(F)F)c1` (stereo partly drawn) [Example 6-(b), (3S)-3-(2-(4-((5-fluoro-1,4,5,6-tetrahydropyrimidin-2-yl)amino)-1H-indazole-6-carboxamido)acetamido)-3-(3-fluoro-5-(trifluoromethyl)phenyl)propanoic acid], for which the Papp A→B at 90 min, 10 μM in series [1] is > 1 ×10⁻⁶ cm/s. For the same compound, the IC50 on αvβ1 is < 3 nM.
In the case of `O=C(O)C[C@H](NC(=O)CNC(=O)c1cc(NC2=NCC(F)CN2)c2cn[nH]c2c1)c1cc(C(F)(F)F)cc(C(F)(F)F)c1` (stereo partly drawn) [Example 7-(b), (3S)-3-(3,5-bis(trifluoromethyl)phenyl)-3-(2-(4-((5-fluoro-1,4,5,6-tetrahydropyrimidin-2-yl)amino)-1H-indazole-6-carboxamido)acetamido)propanoic acid], the Papp A→B at 90 min, 10 μM in series [1] was 0.5 to 1 ×10⁻⁶ cm/s. Moreover, the IC50 on αvβ1 was < 3 nM.
Compound `O=C(O)C[C@H](NC(=O)CNC(=O)c1cc(NC2=NCC(F)CN2)c2cn[nH]c2c1)c1cc(-n2cccn2)cc(C(F)(F)F)c1` (stereo partly drawn) [Example 8-(b), (3S)-3-(3-(1H-pyrazol-1-yl)-5-(trifluoromethyl)phenyl)-3-(2-(4-((5-fluoro-1,4,5,6-tetrahydropyrimidin-2-yl)amino)-1H-indazole-6-carboxamido)acetamido)propanoic acid] gave a Papp A→B at 90 min, 10 μM in series [1] of 0.5 to 1 ×10⁻⁶ cm/s. Moreover, the 50% inhibitory concentration (IC50) at αvβ1 was < 3 nM.
Regarding `O=C(O)C[C@H](NC(=O)CNC(=O)c1cc(NC2=NCC(F)CN2)c2cn[nH]c2c1)c1cccc(C(F)(F)F)c1F` (stereo partly drawn) [Example 9-(b), (3S)-3-(2-(4-((5-fluoro-1,4,5,6-tetrahydropyrimidin-2-yl)amino)-1H-indazole-6-carboxamido)acetamido)-3-(2-fluoro-3-(trifluoromethyl)phenyl)propanoic acid], the Papp A→B at 90 min, 10 μM in series [1] was > 1 ×10⁻⁶ cm/s. Besides, the IC50 at αvβ1 fell in the range of 3 to 10 nM.
For `O=C(O)C[C@H](NC(=O)CNC(=O)c1cc(NC2=NCC(F)CN2)c2cn[nH]c2c1)c1cccc(C(F)(F)F)c1Cl` (stereo partly drawn) [Example 10-(b), (3S)-3-(2-chloro-3-(trifluoromethyl)phenyl)-3-(2-(4-((5-fluoro-1,4,5,6-tetrahydropyrimidin-2-yl)amino)-1H-indazole-6-carboxamido)acetamido)propanoic acid], in that order: > 1 ×10⁻⁶ cm/s and ≥ 100 nM.
As to `O=C(O)C[C@H](NC(=O)CNC(=O)c1cc(NC2=NCC(F)CN2)c2cn[nH]c2c1)c1cc(C(F)(F)F)ccc1F` (stereo partly drawn) [Example 11-(b), (3S)-3-(2-(4-((5-fluoro-1,4,5,6-tetrahydropyrimidin-2-yl)amino)-1H-indazole-6-carboxamido)acetamido)-3-(2-fluoro-5-(trifluoromethyl)phenyl)propanoic acid], the Papp A→B at 90 min, 10 μM in series [1] was > 1 ×10⁻⁶ cm/s. At αvβ1, the half-maximal inhibitory concentration (IC50) is 3 to 10 nM.
`O=C(O)C[C@H](NC(=O)CNC(=O)c1cc(NC2=NCC(F)CN2)c2cn[nH]c2c1)c1cc(C(F)(F)F)ccc1Cl` (stereo partly drawn) [Example 12-(b), (3S)-3-(2-chloro-5-(trifluoromethyl)phenyl)-3-(2-(4-((5-fluoro-1,4,5,6-tetrahydropyrimidin-2-yl)amino)-1H-indazole-6-carboxamido)acetamido)propanoic acid]: in series [1], the Papp A→B at 90 min, 10 μM was > 1 ×10⁻⁶ cm/s. Moreover, the IC50 at αvβ1 was in the range of 3 to 10 nM.
Take `O=C(O)C[C@H](NC(=O)CNC(=O)c1cc(NC2=NCC(F)CN2)c2cn[nH]c2c1)c1ccc(F)c(C(F)(F)F)c1` (stereo partly drawn) [Example 13-(b), (3S)-3-(2-(4-((5-fluoro-1,4,5,6-tetrahydropyrimidin-2-yl)amino)-1H-indazole-6-carboxamido)acetamido)-3-(4-fluoro-3-(trifluoromethyl)phenyl)propanoic acid]: the Papp A→B at 90 min, 10 μM in series [1] is > 1 ×10⁻⁶ cm/s. Besides, the IC50 at αvβ1 was < 3 nM.
In the same order, the values of `Cc1ccc([C@H](CC(=O)O)NC(=O)CNC(=O)c2cc(NC3=NCC(F)CN3)c3cn[nH]c3c2)cc1C(F)(F)F` (stereo partly drawn) [Example 14-(b), (3S)-3-(2-(4-((5-fluoro-1,4,5,6-tetrahydropyrimidin-2-yl)amino)-1H-indazole-6-carboxamido)acetamido)-3-(4-methyl-3-(trifluoromethyl)phenyl)propanoic acid] are > 1 ×10⁻⁶ cm/s and < 3 nM.
